Data published in publication PMC9182086, “Identification of New Non-BBB Permeable Tryptophan Hydroxylase Inhibitors for Treating Obesity and Fatty Liver Disease” (Molecules, 2022).

How the values were obtained:
CYP2D6 = target: T1, CYP2D6 (Homo sapiens, UniProt P10635); assay: CYP inhibition assay (P450-Glo) CYP2D6; assay type: in vitro ADME; conditions: P450-Glo CYP2D6 Screening System (CYP enzyme), read-out: CYP inhibition 2D6
T1 construct: purchased Promega Corp. V9890
Excerpt: (§1) Five major screening systems: P450-Glo CYP1A2 Screening System (Catalog# V9770), P450-Glo CYP2C9 Screening System (Catalog# V9790), P450-Glo CYP2C19 (Catalog# V9880), P450-Glo CYP 2D6 (Catalog# V9890), and P450-Glo CYP3A4 (Catalog# V9920) were attained from Promega Corp. (Madison, WI). α-naphthoflavone, sulfaphenazole, amitriptyline, quinidine, and ketoconazole were identified as positive control inhibitors for CYP1A2, CYP2C9, CYP2C19, CYP2D6, and CYP3A4, respectively. The CYP enzyme and substrate were combined in a potassium phosphate (KPO4) buffer and the reaction is initiated by adding an NADPH regenerating system. The volume of the mixture (12.5 μL in a 96-well plate) was combined with an equal volume of test compound solution and positive control inhibitor (12.5 μL added to make the volume 25 μL). The reaction of the NADPH regeneration system was initiated by adding a 2× concentration of NADPH solution. Then an equal volume of luciferin detection reagent was added. The plates were incubated at room temperature for 20 min and the luminescence signal was measured by a microplate reader device.

3T3-L1 cells = assay: In vitro efficacy test: lipogenic/adipogenic gene expression during 3T3-L1 adipocyte differentiation; assay type: cell-based, mouse; conditions: 10 μM or 50 μM, vs vehicle
Procedure: 3T3-L1 cells (American Type Culture Collection, Manassas, VA, USA) were cultured in DMEM supplemented with 10% FCS and […] P/S in a humidified chamber under 5% atmospheric CO2 at 37 °C. Two days after reaching confluence, cells were further cultured in adipocyte differentiation medium (DMEM/10% FBS, P/S, 0.5 mM IBMX, 1 μg mL^−1 insulin, and 1 μM dexamethasone) (day 0). After 2 days, the medium was changed to adipocyte maintenance medium (DMEM/10% FBS, 1 μg mL^−1 insulin, P/S) (day 2), and the media was changed every 2 days from day 4 to 8. Cells were treated with compound 6 at 10 or 50 μM concentrations throughout adipocyte differentiation (day 0 thru day 8). On day 8, differentiated 3T3-L1 […] were harvested for analysis of gene expression.
Total RNA was extracted from 3T3-L1 cells using Trizol reagent (Invitrogen, Carlsbad, CA, USA), purified using a RNeasy Lipid Tissue Mini kit (Qiagen, Hilden, Germany), and an aliquot (2 µg) of total RNA was reversed transcribed using the RevertAidTM First Strand cDNA Synthesis Kit (Thermo Fisher Scientific, Waltham, MA, USA) according to the manufacturer’s instructions. Real-time PCR was carried out using SYBR Green (Power SYBR Green PCR Master Mix, Thermo Fisher Scientific) with a ViiA™ 7 Real-Time PCR system (Applied Biosystems, Waltham, MA, USA). […]

[1] = Liver microsomal stability (rat); assay type: in vitro ADME
Procedure: For the liver microsomal activity, test compounds were incubated with rat and mouse’s liver microsomes, respectively, at a final concentration of 1 µM, in the presence of an NADPH regeneration system in 0.1 M potassium phosphate buffer (pH 7.4) for […] at 37 °C in shaking incubator. The microsomal reaction was terminated by adding four volumes of ice-cold acetonitrile and then centrifuged at 4000 rpm for 20 min. The supernatant was collected and analyzed by a LC-MS/MS system. The percentage of the parent compound remaining was calculated by comparing peak areas.

CYP1A2 = target: T2, CYP1A2 (Homo sapiens, UniProt P05177); assay: CYP inhibition assay (P450-Glo) CYP1A2; assay type: in vitro ADME; conditions: P450-Glo CYP1A2 Screening System (CYP enzyme), read-out: CYP inhibition 1A2
T2 construct: purchased Promega Corp. V9770
T2 sequence (P05177 1-516): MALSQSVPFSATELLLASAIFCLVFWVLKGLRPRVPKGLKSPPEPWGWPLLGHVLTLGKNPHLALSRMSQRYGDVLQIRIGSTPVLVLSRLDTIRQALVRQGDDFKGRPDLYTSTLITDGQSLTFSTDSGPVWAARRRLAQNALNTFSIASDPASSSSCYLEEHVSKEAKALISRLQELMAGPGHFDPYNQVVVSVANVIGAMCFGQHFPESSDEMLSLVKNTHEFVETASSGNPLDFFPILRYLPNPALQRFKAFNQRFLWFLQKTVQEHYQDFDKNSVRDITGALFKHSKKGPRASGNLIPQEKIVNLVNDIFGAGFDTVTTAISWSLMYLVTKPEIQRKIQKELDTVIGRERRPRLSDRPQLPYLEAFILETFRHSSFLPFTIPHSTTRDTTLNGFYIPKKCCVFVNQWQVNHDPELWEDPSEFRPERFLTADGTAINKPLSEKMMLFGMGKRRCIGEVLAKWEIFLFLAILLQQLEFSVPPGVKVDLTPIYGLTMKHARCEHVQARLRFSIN
Excerpt: as §1

CYP3A4 = target: T3, CYP3A4 (Homo sapiens, UniProt P08684); assay: CYP inhibition assay (P450-Glo) CYP3A4; assay type: in vitro ADME; conditions: P450-Glo CYP3A4 Screening System (CYP enzyme), read-out: CYP inhibition 3A4
T3 construct: purchased Promega Corp. V9920
Excerpt: as §1

T1 sequence (P10635 whole entry): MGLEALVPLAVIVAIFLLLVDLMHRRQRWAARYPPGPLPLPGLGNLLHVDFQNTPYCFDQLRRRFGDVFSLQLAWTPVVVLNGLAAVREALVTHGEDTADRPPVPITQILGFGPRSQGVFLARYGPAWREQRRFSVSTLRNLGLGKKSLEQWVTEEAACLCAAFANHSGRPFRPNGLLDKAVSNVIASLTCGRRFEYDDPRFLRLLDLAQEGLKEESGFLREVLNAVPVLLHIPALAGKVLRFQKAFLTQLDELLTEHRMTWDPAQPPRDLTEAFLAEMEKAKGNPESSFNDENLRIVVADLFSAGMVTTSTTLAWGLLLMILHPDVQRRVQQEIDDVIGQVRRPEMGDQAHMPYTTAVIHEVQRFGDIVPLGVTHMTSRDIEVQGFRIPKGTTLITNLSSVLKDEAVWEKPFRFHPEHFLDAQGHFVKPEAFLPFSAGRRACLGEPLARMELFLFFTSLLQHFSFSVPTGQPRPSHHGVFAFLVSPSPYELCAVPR
T3 sequence (P08684 whole entry): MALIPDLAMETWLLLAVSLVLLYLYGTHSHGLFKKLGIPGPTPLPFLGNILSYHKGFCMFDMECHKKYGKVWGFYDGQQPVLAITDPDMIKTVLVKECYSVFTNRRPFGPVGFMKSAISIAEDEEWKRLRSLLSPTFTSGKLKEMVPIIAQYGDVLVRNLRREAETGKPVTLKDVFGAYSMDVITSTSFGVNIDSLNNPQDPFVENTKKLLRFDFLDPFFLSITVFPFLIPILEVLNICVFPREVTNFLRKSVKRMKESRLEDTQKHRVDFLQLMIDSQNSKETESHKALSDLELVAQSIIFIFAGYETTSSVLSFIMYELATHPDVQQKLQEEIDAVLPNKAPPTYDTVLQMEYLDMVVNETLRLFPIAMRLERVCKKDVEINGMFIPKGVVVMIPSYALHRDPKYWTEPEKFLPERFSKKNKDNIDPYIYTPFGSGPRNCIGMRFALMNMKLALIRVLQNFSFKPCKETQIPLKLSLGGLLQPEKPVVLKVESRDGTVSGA

inhibition at 10 µM (CYP2D6): 24.6%
Liver microsomal stability, remained ([1]; after incubation for 30 min, species not given): 99%
inhibition at 10 µM (CYP1A2): 0.1%
inhibition at 10 µM (CYP3A4): 45.3%
Structure (SMILES): Cc1ccn(-c2cc(Cl)ccc2[C@@H](Oc2ncnc3c(-c4ccc(C[C@H](N)C(=O)O)cc4)csc23)C(F)(F)F)n1.Cl [Compound 18i, (S)-2-amino-3-(4-(4-((R)-1-(4-chloro-2-(3-methyl-1H-pyrazol-1-yl)phenyl)-2,2,2-trifluoroethoxy)thieno[3,2-d]pyrimidin-7-yl)phenyl)propanoic acid hydrochloride]
Expression of lipogenic genes Fasn, Srebp1c and adipogenic transcription factors Pparg, Cebpa (3T3-L1 cells): decreased expression of key lipogenic genes
Liver microsomal stability (rat), parent remained ([1]; after 30 min incubation, 1 µM): 99% parent remained after 30 min incubation
